# Experimental data taken from patent US11673925B2, “Oligopeptide with anti-inflammatory activity, preparation method, and application thereof” (NANJING UNIVERSITY OF FINANCE AND ECONOMICS, priority 2021, dated 2023).
# Where a SMILES comes first, the peptide text is derived from it.
# Test system: RAW 264.7 normal macrophages
# Assay type: cell-based
# Text: (4) detection of effects of respective components (WGPH-I, WGPH-II, and WGPH-III) on the proliferation activity of RAW 264.7 normal macrophages by a methyl thiazolyl tetrazolium (MTT) assay
# RAW 264.7 macrophages in a logarithmic growth phase are taken and prepared into a cell suspension of 3×10^4 cells/mL in a RPIM 1640 culture medium containing 10% FBS. Sample wells are set in a 96-well plate (also referred to as 96-well tissue culture plates), and 100 microliters (μL) of cell suspension are added to each sample well, and the cells are cultured in a cell incubator for 12 h to make the cells adhere to the wall. After removing the culture medium in the sample wells, different components WGPH-I (>3 kDa), WGPH-II (1˜3 kDa), and WGPH-III (<1 kDa) are dissolved in RPIM 1640 culture medium containing 10% FBS to prepare different concentrations of oligopeptide culture medium (0, 50, 100, 200, and 300 μg/mL) respectively, and then added to respective sample wells, 100 μL per well. A blank well is set, and compared with the sample wells, there is no cell, with 100 μL PBS instead of the oligopeptide culture medium. A control well is set, compared with the sample wells, there is cells, with 100 μL PBS instead of oligopeptide culture medium. […] The absorbance is measured at a wavelength of 570 nanometers (nm) in the microplate reader. […]
smiles,measurement,value
C[C@H](N)C(=O)N1CCC[C@H]1C(=O)N[C@@H](CCC(=O)O)C(=O)N1CCC[C@H]1C(=O)N[C@@H](CCC(=O)O)C(=O)N1CCC[C@H]1C(=O)N[C@@H](C)C(=O)N[C@@H](Cc1ccccc1)C(=O)O [oligopeptide] (H-APEPEPAF-OH),effect on the proliferation activity of macrophages,no effect
